Results as given in publication PMC11519904, “Comprehensive Cell Biological Investigation of Cytochalasin B Derivatives with Distinct Activities on the Actin Network” (Journal of Natural Products, 2024).
Where “and” joins values, the source holds several entries; their conditions need not be identical. Equal entries are not always repeated. Entries after “also recorded” stand apart in the source; their conditions may differ. Where two headings read alike, the source gives them in different places.

Experiments:
[1] = target: T1, actin (G-actin purified from rabbit skeletal muscle) (Oryctolagus cuniculus, UniProt P68135); test: Pyrene actin polymerization assay; type: biochemical; settings: 2 μM compound, 2 μM actin (5% pyrene-actin), 550 nM actin seeds, after 30 min; control = 100%
T1 construct: 1.5 kg of fresh rabbit skeletal muscle was minced with a meat grinder; from tissue; host or cells: rabbit skeletal muscle (acetone powder)
Source text: To rule out that the reduced in cellulo efficacies of 3–5 could instead be explained by an altered membrane permeability of modified compounds or their differential effects on other intracellular factors, pyrene actin polymerization assays[23] were used to analyze potential effects on actin assembly in vitro under defined conditions. Globular actin (G-actin) was purified from rabbit skeletal muscle[24] and fluorescently labeled with pyrene (see description in the Supporting Information). G-actin (2 μM) supplemented with 5% pyrene-labeled actin was added to actin seeds and the respective compound (2 μM) in polymerization buffer to initiate the reaction. Actin polymerization was then assessed by reading out the increasing pyrene fluorescence signal over time (Figure 3).
Acetone powder and G-actin were prepared as described previously.[24] Briefly, 1.5 kg of fresh rabbit skeletal muscle was minced with a meat grinder. Subsequently, the meat was stirred for 15 min in 2.5 L of high-salt buffer (0.5 M KCl, 0.1 M K2HPO4, 2 mM benzamidine, pH 6.4) and then pelleted at 4000g for 10 min. The supernatant was discarded, and the pellet was extracted once more with high-salt buffer and then washed twice with ice-cold ddH2O adjusting the slurry with 1 M Na2CO3 to pH 8.3 until a slight swelling of the pellet became visible. The pellet was then resuspended in ice-cold acetone, stirred for 15 min, and then centrifuged for 10 min at 4000g. The supernatant was discarded, and the pellet was washed once more with acetone before the pellet was broken up and dried in small pieces on aluminum foil under a fume hood overnight. The dried acetone powder was stored at −80 °C for further use.
For purification of G-actin, 5 g of the acetone powder was extracted five times with 50 mL of G-buffer containing 2 mM Tris-HCl, pH 8.0, 0.2 mM CaCl2, 0.5 mM DTT, 0.2 mM Na2ATP, and 0.1 mg/mL NaN3. After each step, the solution was filtered through a fine gauze, yielding a total volume of 250 mL. Subsequently, the solution was centrifuged for 30 min at 20,000g at 4 °C. Actin in the supernatant was then polymerized by addition of 25 × polymerization buffer (250 mM Tris-HCl pH 8.0, 1250 mM KCl, 25 mM Na2ATP, 50 mM MgCl2 × 6 H2O) overnight. Subsequently, KCl was added to a final concentration of 750 mM, followed by centrifugation of the solution at 150,000g at 4 °C for 3 h. The F-actin pellet was then homogenized with 25 mL of G-actin buffer using a potter and then dialyzed against G-buffer. After a final centrifugation step at 150,000g at 4 °C for 3 h, G-actin was purified by size exclusion chromatography using a HiLoad 26/75 Superdex 200 column. Actin concentrations were determined by measuring the absorbance at 290 nm and using an extinction coefficient of 26,600 M^–1 cm^–1.
For pyrene labeling, 10–20 mL of G-actin solution were dialyzed against labeling buffer following the procedure described by Doolittle et al.[38] […]
Pyrene assays were conducted to assess the inhibitory properties of cytochalasins on actin polymerization under defined conditions in vitro using G-actin and actin seeds. The degree of labeling was determined; EC290 nm actin: 26600 1/M × cm; EC342 nm pyrene: 31091 1/M × cm. […]

[2] = test system: glucose carrier in human erythrocytes; settings: cited from earlier work
U-2OS cells = test: Cell proliferation assay (Incucyte), 24 h treatment and 47 h recovery; type: cell-based, human; settings: 24 h 5 x IC50 treatment
Experimental: U-2OS cells were seeded into fibronectin-coated (25 μg/mL) 96-well plate wells at densities of 3700 cells/well and allowed to spread overnight at 37 °C and 7.5% CO2. Cells were treated with 5 × IC50 concentrations of desired compounds for 24 h, washed twice with prewarmed PBS, and cultured in complete medium for further 47 h. Cells were recorded immediately after compound addition over the course of the experiment using an Incucyte S3 live-cell analysis system (Sartorius, Göttingen, Germany) with a 20 × objective at 37 °C and 5% CO2. Three phase contrast images per well and three wells per treatment were captured every hour for 71 h. The quantification of phase object counts was accomplished with the Adherent Cell-by-Cell analysis module of the IncuCyte S3 Live Cell Analysis Software and normalized to the average, respective initial phase contrast count. Graphical presentation of the data and ordinary one-way ANOVA followed by Dunnett’s multiple comparisons test was performed using GraphPad Prism version 8.4.3 for Windows, GraphPad Software (Boston, MA, USA, www.graphpad.com).

[3] = test system: KB3.1 (human cervix carcinoma); test: Cytotoxicity assay (MTT), KB3.1; type: cell-based; settings: 5 days of incubation, MTT, read-out: IC50 KB3.1
Experimental: The cytotoxicity assay was implemented in 96-well flat-bottom microtiter plates following a reported procedure.[21],[22],[33] The mammalian cell lines L929 (mouse fibroblast) and KB3.1 (human cervix carcinoma) were cultivated at 37 °C and 10% CO2 in Dulbecco’s modified minimum essential medium (DMEM, Life Technologies, Carlsbad, CA, USA) supplemented with 10% fetal bovine serum (FBS, Life Technologies). The microtiter plate was filled with 120 μL of suspended cells (50,000/mL), and 60 μL of a serial dilution of the test compound was added. After 5 days of incubation, growth inhibition (IC50) was determined by a colorimetric tetrazolium dye MTT assay.[34] The compounds were dissolved in MeOH (1 mg/mL), MeOH was used as negative control, and epothilone[35] (1 mg/mL) was used as positive control.

Structure (SMILES)	relative actin polymerization rate [1]	binding to site I of the glucose carrier ([2]; human erythrocyte membranes ref 30)	inhibition of glucose transport ([2]; human erythrocytes ref 29, 30)	cell proliferation / recovery after washout (U-2OS cells)	IC50 [3]	IC50 ([3]; Homo sapiens, KB 3-1, 120 h)
C=C1[C@@H](C)[C@H]2[C@H](Cc3ccccc3)NC(=O)[C@]23OC(=O)/C=C/[C@H](O)CCC[C@@H](C)C/C=C/[C@H]3[C@@H]1OC(C)=O [Compound 3, 7-O-acetyl cytochalasin B]	107%	able to bind site I	inhibits glucose transport	significantly diminished; also recorded: completely abolished	–	–
C=C1[C@@H](C)[C@H]2[C@H](Cc3ccccc3)NC(=O)[C@]23OC(=O)/C=C/[C@H](OC(C)=O)CCC[C@@H](C)C/C=C/[C@H]3[C@@H]1O [Compound 6, 20-O-acetyl cytochalasin B]	58%	–	–	–	–	–
C=C1[C@@H](C)[C@H]2[C@H](Cc3ccccc3)N(C(C)=O)C(=O)[C@]23OC(=O)/C=C/[C@H](O)CCC[C@@H](C)C/C=C/[C@H]3[C@@H]1O [Compound 5, N-acetyl cytochalasin B]	86% and 84–86%	–	–	–	7.9 µM	4.8 to 9.4 µM
